Where two headings read alike, the source gives them in different places.
What was measured:
[1] = system: uHCC progressed on sorafenib treatment; set-up: method as in PMID 27932229; conditions: patients with uHCC who progressed on sorafenib, cited from earlier work
HCC-PDX model 20 = test: Patient-derived HCC xenograft model 20, tumor growth; assay type: in vivo, BALB/c nude mice; conditions: for Mean TV: day 21, R 10 / S 30 mg/kg/day oral; for RTV: end of study
Method: (§1) The PDX studies were carried out by WuXi AppTec (Shanghai, China). HCC-PDX models were originally established from surgically resected tumor tissue that was implanted in 6–8-week-old female BALB/c nude mice. Animal studies were performed according to the guidelines approved by the Institutional Animal Care and Use Committee of Wuxi AppTec, which follow the guidance of the Association for the Assessment and Accreditation of Laboratory Animal Care. Animals were routinely monitored for their health status and their body weights. Treatment was suspended and/or doses reduced at body weight losses >10%. Animals were euthanized when the tumor size exceeded 2000 mm^3. Pieces from tumor xenografts (∼30 mm^3) from passages 4–8 (ST1) were implanted subcutaneously at the right flank, and tumors were grown to an average size of about 150–200 mm^3. […] Tumor size was measured twice weekly using caliper measurements. Tumor volume (mm^3) was calculated using the formula 0.5 a × b^2, where a and b are the long and short diameters of the tumor, respectively. TGI was assessed either by calculating the ratio of the mean tumor volumes of treated and control groups or by determination of the RTV, which relates tumor volumes at any given day of treatment to the volume at the first treatment day.
(§2) In the syngenic orthotopic H129 model, differences in survival times between groups were analyzed for significance using log-rank tests. Analysis of tumor volumes of the HCC-PDX models was performed with log2-transformed values on defined days of measurement based on the assumption of their log-normal distribution. […] All respective statistical test results were derived from a common linear model that allows for individual variances in the different groups. The adjustment for multiple testing was carried out using Šidák correction at a significance level of 0.05. Back transformation of the mean difference of log2-transformed tumor volumes led to the ratios of the compared groups, whereby ratios of 1 reflect no difference in tumor volumes and ratios below or above 1 reflect smaller or larger tumor volumes, respectively, of the respective second group. The analyses of RTV were carried out in a similar fashion without the log2 transformation of values. Bead-based western data were analyzed (described in [15]) using the MEV 4.8.1 software package. A p-value <0.05 was regarded as significant. All statistical analyses were performed with SAS® 9.4 [34].

HCC-PDX model 101 = test: Patient-derived HCC xenograft model 101, tumor growth; assay type: in vivo, BALB/c nude mice; conditions: for Mean TV: day 28, R 10 / S 30 mg/kg/day oral starting dose; for RTV: end of study, day 42
Method: as §1, §2

unresectable HCC (uHCC) [2] = conditions: placebo 4.2 months; cited from earlier work
unresectable HCC (uHCC) [3] = conditions: patients with uHCC; placebo 7.9 months; cited from earlier work
[4] = system: HCC-PDX model 189 xenografts; test: DigiWest bead-based multiplex western blot of treated xenografts; assay type: in vivo, BALB/c nude mice; conditions: 24 hours after last dose, sorafenib 30 mg/kg/day
Method: For high-content Western analysis, DigiWest was performed as described by Treindl et al.. In brief, xenograft tissue was ground by a Mikro-Dismembrator (Sartorius) and subsequently lysed by the addition of 2× LDS lysis buffer (Life Technologies™) and heated to 95°C for 9 minutes with several vortexing steps. Undissolved material was removed by consecutive centrifugation at 20°C for 2 minutes at 300 x g, 5 minutes at 16,000 x g, and through a QIAshredder homogenizer tube (Qiagen) for 5 minutes at 16,000 x g. Protein concentration was determined by in-gel staining. 3 μL lysate was separated by SDS-PAGE stained with IRDye® Blue and detected with a Li-COR Odyssey Infrared Imaging System (Li-COR Biosciences, Bad Homburg, Germany) at 700 nm. Next, 12 μg protein per sample was separated using 4–12% Bis-Tris gels (Life Technologies™) according to the manufacturer’s instructions. Blotting onto PVDF membranes (Millipore) was performed under standard conditions. Proteins immobilized on the blotting membrane were biotinylated (NHS-PEG12-Biotin, Thermo Scientific) and individual sample lanes were cut into 96 strips each (height 0.5 mm each, strip width 7.5 mm) using an electronic cutting tool (Silhouette SD). Each individual strip was placed in a separate well of a 96-well plate, and protein was eluted for 2 hours in 10 μL elution buffer (8 M urea, 1% Triton-X100 in 100 mM Tris-HCl, pH 9.5). After the addition of 90 μL of dilution buffer (5% BSA in PBS, 0.02% sodium azide, 0.05% Tween-20), 96 different Neutravidin-coated Luminex bead sets (40,000 beads/well) were added to the individual wells, and eluted biotinylated proteins were captured on the bead surface during overnight incubation. After incubation, the Luminex beads were pooled, washed, and stored in storage buffer (1% BSA, 0.05% Tween-20, 0.05% sodium azide in PBS) at 4°C.
For antibody incubation, an aliquot of the bead pool was transferred into an assay plate and 30 μL of diluted western blot antibody in assay buffer (Blocking Reagent, Roche Applied Science; 0.05% Tween 20, 0.02% sodium azide, 0.2% milk powder) was added per well. 116 antibody incubations on 12 samples were performed overnight at 4°C. For read-out, beads were washed twice with 100 μL of PBST before species-specific PE-labeled secondary antibodies (Jackson) were added in 30 μL of assay buffer for 1 hour. […]
DigiWest analysis was performed as previously described. In brief, data generated by the Luminex instrument were analyzed using a dedicated analysis tool that visualizes the fluorescent signals as bar graphs and identifies antibody-specific peaks. […] After background correction, specific signal intensities are calculated as the integral of the identified peak.

CNC(=O)c1cc(Oc2ccc(NC(=O)Nc3ccc(Cl)c(C(F)(F)F)c3)c(F)c2)ccn1 [Regorafenib]
Hazard ratio for OS vs placebo ([1]; 95% CI 0.50, 0.79): 0.63 | Median OS ([1]; placebo 7.8 months): 10.6 months | log TV Ratio, compound vs vehicle (T/C) (HCC-PDX model 20; day 21): 0.73 | log TV Ratio, regorafenib vs sorafenib (HCC-PDX model 20; day 21): 0.93 | Mean TV (HCC-PDX model 20): 742.98 mm^3 | log TV Differences of least square-means, compound vs vehicle (HCC-PDX model 20; day 21, log2-transformed TV): -0.4621 | log TV Differences of least square-means, regorafenib vs sorafenib (HCC-PDX model 20; day 21, log2-transformed TV): -0.1048 | RTV Differences of least square-means, compound vs vehicle (HCC-PDX model 20; day 42): -23.2 | RTV Differences of least square-means, regorafenib vs sorafenib (HCC-PDX model 20; day 42): -11 | RTV (HCC-PDX model 20; day 42): 9.46 | log TV Ratio, compound vs vehicle (T/C) (HCC-PDX model 101; day 28): 0.19 | log TV Ratio, regorafenib vs sorafenib (HCC-PDX model 101; day 28): 0.41 | Mean TV (HCC-PDX model 101): 177.21 mm^3 | RTV (HCC-PDX model 101): 2.06

CNC(=O)c1cc(Oc2ccc(NC(=O)Nc3ccc(Cl)c(C(F)(F)F)c3)cc2)ccn1 [Sorafenib]
Median OS (unresectable HCC (uHCC) [2]): 6.5 months | Median OS (unresectable HCC (uHCC) [3]): 10.7 months | Mean TV (HCC-PDX model 20): 737.74 mm^3 | log TV Differences of least square-means, compound vs vehicle (HCC-PDX model 20; day 21, log2-transformed TV): -0.3573 | RTV Differences of least square-means, compound vs vehicle (HCC-PDX model 20; day 42): -12.2 | RTV (HCC-PDX model 20; day 42): 10.55 | FGF-1 protein expression vs vehicle [4]: downregulated | Full-length PARP protein expression vs vehicle [4]: significantly downregulated | Mst2 protein expression vs vehicle [4]: downregulated | cdc2-pY15 protein expression vs vehicle [4]: downregulated | Mean TV (HCC-PDX model 101): 416.97 mm^3 | RTV (HCC-PDX model 101): 5.37
